Data reported in patent publication US9695155B2, “Herbicidal substituted pyrimidinyloxy benzene compounds” (E. I. DU PONT DE NEMOURS AND COMPANY, priority 2013, dated 2017).

Tests used:
[1] = tested on: giant foxtail; experiment: Test A preemergence; format: in vivo, Setaria faberii; settings: for Plant response rating, Foxtail, Giant: 125 g ai/ha, 0 to 100 scale where 0 is no effect and 100 is complete control; for Foxtail, Giant plant response rating: 500 g ai/ha, 0 to 100 scale, 0 no effect, 100 complete control, approx. 10 days
Summary of the method: (§1)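 Visual 0–100 rating (100 = complete control) taken about 10 d post-treatment relative to untreated checks. Preemergence: directed soil spray on sown loam/sand pots. Postemergence: seedlings 2–10 cm, 1–2 leaf. Non-phytotoxic solvent formulation with surfactant.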

[2] = tested on: barnyardgrass; experiment: Test A postemergence; format: in vivo, Echinochloa crus-galli; settings: 0 to 100 scale where 0 is no effect and 100 is complete control
Summary of the method: as §1

[3] = tested on: pigweed; experiment: Test A postemergence; format: in vivo, Amaranthus retroflexus; settings: 0 to 100 scale where 0 is no effect and 100 is complete control
Summary of the method: as §1

[4] = tested on: barnyardgrass; experiment: Test B flooded paddy test; format: in vivo, Echinochloa crus-galli; settings: Flood, 250 g ai/ha; 0 to 100 scale where 0 is no effect and 100 is complete control
Summary of the method: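 Flooded to 3 cm at the 2-leaf stage, pots received compound through the paddy water and were kept at that depth under greenhouse conditions. After 13–15 days, effect was rated by eye relative to controls, 0 = none and 100 = complete control.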

[5] = tested on: galium; experiment: Test C preemergence; format: in vivo, Galium aparine; settings: for Galium plant response rating: preemergence; for Plant response rating, Galium: Preemergence, 31 g ai/ha, scale 0 to 100, 0 no effect, 100 complete control
Summary of the method: (§2)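 Whole-plant greenhouse test with surfactant-containing solvent formulation, applied preemergence to sown loam–sand pots or postemergence to 2–18 cm plants. Scored by eye 13 to 15 days on, 0–100 scale.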

[6] = tested on: morningglory; experiment: Test C preemergence; format: in vivo, Ipomoea coccinea; settings: for Morningglory plant response rating: preemergence; for Plant response rating, Morningglory: Preemergence, 31 g ai/ha, scale 0 to 100, 0 no effect, 100 complete control
Summary of the method: as §2

[7] = tested on: soybean; experiment: Test C preemergence; format: in vivo, Glycine max; settings: for Soybean plant response rating: preemergence; for Plant response rating, Soybean: Preemergence, 31 g ai/ha, scale 0 to 100, 0 no effect, 100 complete control
Summary of the method: as §2

[8] = tested on: barnyardgrass; experiment: Test C preemergence; format: in vivo, Echinochloa crus-galli; settings: for Barnyardgrass plant response rating: preemergence; for Plant response rating, Barnyardgrass: Preemergence, 31 g ai/ha, scale 0 to 100, 0 no effect, 100 complete control
Summary of the method: as §2

[9] = tested on: oilseed rape; experiment: Test C preemergence; format: in vivo, Brassica napus; settings: for Oilseed Rape plant response rating: preemergence; for Plant response rating, Oilseed Rape: Preemergence, 31 g ai/ha, scale 0 to 100, 0 no effect, 100 complete control
Summary of the method: as §2

[10] = tested on: waterhemp; experiment: Test C preemergence; format: in vivo, Amaranthus rudis; settings: for Waterhemp plant response rating: preemergence; for Plant response rating, Waterhemp: Preemergence, 31 g ai/ha, scale 0 to 100, 0 no effect, 100 complete control
Summary of the method: as §2

[11] = tested on: galium; experiment: Test C postemergence; format: in vivo, Galium aparine; settings: for Galium plant response rating: 16 g ai/ha, visual rating; for Galium plant response rating / Plant response rating (0 to 100), Galium: postemergence; for Galium plant response rating / Plant response rating, Galium: scale 0 to 100 (0 no effect, 100 complete control); for Plant response rating (0 to 100), Galium: 125 g ai/ha; for Plant response rating, Galium: Postemergence
Summary of the method: as §2

[12] = tested on: johnsongrass; experiment: Test C postemergence; format: in vivo, Sorghum halepense; settings: for Johnsongrass plant response rating: 16 g ai/ha, visual rating; for Johnsongrass plant response rating / Plant response rating (0 to 100), Johnsongrass: postemergence; for Johnsongrass plant response rating / Plant response rating, Johnsongrass: scale 0 to 100 (0 no effect, 100 complete control); for Plant response rating (0 to 100), Johnsongrass: 125 g ai/ha; for Plant response rating, Johnsongrass: Postemergence
Summary of the method: as §2

[13] = tested on: soybean; experiment: Test C postemergence; format: in vivo, Glycine max; settings: for Plant response rating (0 to 100), Soybean: 125 g ai/ha, postemergence; for Plant response rating, Soybean: Postemergence, scale 0 to 100 (0 no effect, 100 complete control)
Summary of the method: as §2

[14] = tested on: velvetleaf; experiment: Test C postemergence; format: in vivo, Abutilon theophrasti; settings: for Plant response rating (0 to 100), Velvetleaf: 125 g ai/ha, postemergence; for Plant response rating, Velvetleaf: Postemergence, scale 0 to 100 (0 no effect, 100 complete control)
Summary of the method: as §2

[15] = tested on: chickweed; experiment: Test C postemergence; format: in vivo, Stellaria media; settings: for Chickweed plant response rating: 16 g ai/ha, visual rating; for Chickweed plant response rating / Plant response rating (0 to 100), Chickweed: postemergence; for Chickweed plant response rating / Plant response rating, Chickweed: scale 0 to 100 (0 no effect, 100 complete control); for Plant response rating (0 to 100), Chickweed: 125 g ai/ha; for Plant response rating, Chickweed: Postemergence
Summary of the method: as §2

[16] = 16 g ai/ha, scale 0 to 100 (0 no effect, 100 complete control)
[17] = 62 g ai/ha, scale 0 (no effect) to 100 (complete control)
[18] = 125 g ai/ha, scale 0 (no effect) to 100 (complete control)

Question: How did the “Plant response rating, Foxtail, Giant” value [1] turn out when `CCOc1cnn(-c2c(C#N)cccc2Oc2ncc(F)cn2)c1` [Compound 89] was run?
Answer: 90

Question: What about the “Foxtail, Giant plant response rating” value [1] of the same compound?
Answer: 90

Question: And the “Plant response rating, Barnyardgrass” value ([2]; 125 g ai/ha)?
Answer: 40

Question: And the “Plant response rating, Barnyardgrass” value ([2]; 500 g ai/ha)?
Answer: 90

Question: And the “Plant response rating, Pigweed” value ([3]; 125 g ai/ha)?
Answer: 90

Question: What about the “Plant response rating, Pigweed” value ([3]; 500 g ai/ha) of the same compound?
Answer: 100

Question: And the “Plant response rating, Barnyardgrass” value [4]?
Answer: 10

Question: And the “Galium plant response rating” value [5, 16]?
Answer: 30

Question: And the “Galium plant response rating” value [5, 17]?
Answer: 85

Question: What about the “Galium plant response rating” value [5, 18] of the same compound?
Answer: 100

Question: And the “Plant response rating, Galium” value [5]?
Answer: 100

Question: What about the “Morningglory plant response rating” value [6, 16] of the same compound?
Answer: 45

Question: What about the “Morningglory plant response rating” value [6, 17] of the same compound?
Answer: 95

Question: And the “Morningglory plant response rating” value [6, 18]?
Answer: 98

Question: What about the “Plant response rating, Morningglory” value [6] of the same compound?
Answer: 35

Question: And the “Soybean plant response rating” value [7, 16]?
Answer: 30

Question: And the “Soybean plant response rating” value [7, 17]?
Answer: 90

Question: What about the “Soybean plant response rating” value [7, 18] of the same compound?
Answer: 98

Question: What about the “Plant response rating, Soybean” value [7] of the same compound?
Answer: 45

Question: What about the “Barnyardgrass plant response rating” value [8, 16] of the same compound?
Answer: 5

Question: And the “Barnyardgrass plant response rating” value [8, 17]?
Answer: 70

Question: And the “Barnyardgrass plant response rating” value [8, 18]?
Answer: 100

Question: What about the “Plant response rating, Barnyardgrass” value [8] of the same compound?
Answer: 35

Question: What about the “Oilseed Rape plant response rating” value [9, 16] of the same compound?
Answer: 80

Question: What about the “Oilseed Rape plant response rating” value [9, 17] of the same compound?
Answer: 95

Question: What about the “Oilseed Rape plant response rating” value [9, 18] of the same compound?
Answer: 98

Question: What about the “Plant response rating, Oilseed Rape” value [9] of the same compound?
Answer: 80

Question: And the “Waterhemp plant response rating” value [10, 16]?
Answer: 80

Question: And the “Waterhemp plant response rating” value [10, 17]?
Answer: 100

Question: And the “Waterhemp plant response rating” value [10, 18]?
Answer: 100

Question: And the “Plant response rating, Waterhemp” value [10]?
Answer: 100

Question: What about the “Galium plant response rating” value ([11]; 13 to 15 days) of the same compound?
Answer: 45

Question: And the “Plant response rating (0 to 100), Galium” value [11]?
Answer: 55

Question: What about the “Plant response rating, Galium” value ([11]; 31 g ai/ha, 13 to 15 days) of the same compound?
Answer: 40

Question: What about the “Plant response rating, Galium” value ([11]; 62 g ai/ha) of the same compound?
Answer: 50

Question: And the “Johnsongrass plant response rating” value ([12]; 13 to 15 days)?
Answer: 0

Question: And the “Plant response rating (0 to 100), Johnsongrass” value [12]?
Answer: 5

Question: And the “Plant response rating, Johnsongrass” value ([12]; 31 g ai/ha, 13 to 15 days)?
Answer: 5

Question: And the “Plant response rating, Johnsongrass” value ([12]; 62 g ai/ha)?
Answer: 5

Question: And the “Plant response rating (0 to 100), Soybean” value [13]?
Answer: 95

Question: And the “Plant response rating, Soybean” value ([13]; 31 g ai/ha, 13 to 15 days)?
Answer: 65

Question: What about the “Plant response rating, Soybean” value ([13]; 62 g ai/ha) of the same compound?
Answer: 90

Question: What about the “Plant response rating (0 to 100), Velvetleaf” value [14] of the same compound?
Answer: 40

Question: What about the “Plant response rating, Velvetleaf” value ([14]; 31 g ai/ha, 13 to 15 days) of the same compound?
Answer: 15

Question: And the “Plant response rating, Velvetleaf” value ([14]; 62 g ai/ha)?
Answer: 25

Question: What about the “Chickweed plant response rating” value ([15]; 13 to 15 days) of the same compound?
Answer: 20

Question: What about the “Plant response rating (0 to 100), Chickweed” value [15] of the same compound?
Answer: 60

Question: And the “Plant response rating, Chickweed” value ([15]; 31 g ai/ha, 13 to 15 days)?
Answer: 50

Question: And the “Plant response rating, Chickweed” value ([15]; 62 g ai/ha)?
Answer: 50

Question: Which results are given for `CCOc1cnn(-c2c(C#N)cccc2Oc2ncc(Cl)cn2)c1` [Compound 92]?
Answer: Plant response rating, Foxtail, Giant [1]: 100; Foxtail, Giant plant response rating [1]: 100; Plant response rating, Barnyardgrass ([2]; 125 g ai/ha): 90; Plant response rating, Barnyardgrass ([2]; 500 g ai/ha): 100; Plant response rating, Pigweed ([3]; 125 g ai/ha): 100; Plant response rating, Pigweed ([3]; 500 g ai/ha): 100; Plant response rating, Barnyardgrass [4]: 20; Galium plant response rating [5, 16]: 80; Galium plant response rating [5, 17]: 95; Galium plant response rating [5, 18]: 98; Plant response rating, Galium [5]: 85; Morningglory plant response rating [6, 16]: 10; Morningglory plant response rating [6, 17]: 98; Morningglory plant response rating [6, 18]: 98; Plant response rating, Morningglory [6]: 25; Soybean plant response rating [7, 16]: 30; Soybean plant response rating [7, 17]: 80; Soybean plant response rating [7, 18]: 95; Plant response rating, Soybean [7]: 65; Barnyardgrass plant response rating [8, 16]: 5; Barnyardgrass plant response rating [8, 17]: 100; Barnyardgrass plant response rating [8, 18]: 100; Plant response rating, Barnyardgrass [8]: 75; Oilseed Rape plant response rating [9, 16]: 80; Oilseed Rape plant response rating [9, 17]: 85; Oilseed Rape plant response rating [9, 18]: 95; Plant response rating, Oilseed Rape [9]: 80; Waterhemp plant response rating [10, 16]: 95; Waterhemp plant response rating [10, 17]: 100; Waterhemp plant response rating [10, 18]: 100; Plant response rating, Waterhemp [10]: 98; Galium plant response rating ([11]; 13 to 15 days): 70; Plant response rating (0 to 100), Galium [11]: 80; Plant response rating, Galium ([11]; 31 g ai/ha, 13 to 15 days): 80; Plant response rating, Galium ([11]; 62 g ai/ha): 65; Johnsongrass plant response rating ([12]; 13 to 15 days): 0; Plant response rating (0 to 100), Johnsongrass [12]: 5; Plant response rating, Johnsongrass ([12]; 31 g ai/ha, 13 to 15 days): 0; Plant response rating, Johnsongrass ([12]; 62 g ai/ha): 5; Plant response rating (0 to 100), Soybean [13]: 95; Plant response rating, Soybean ([13]; 31 g ai/ha, 13 to 15 days): 70; Plant response rating, Soybean ([13]; 62 g ai/ha): 90; Plant response rating (0 to 100), Velvetleaf [14]: 60; Plant response rating, Velvetleaf ([14]; 31 g ai/ha, 13 to 15 days): 45; Plant response rating, Velvetleaf ([14]; 62 g ai/ha): 50; Chickweed plant response rating ([15]; 13 to 15 days): 50; Plant response rating (0 to 100), Chickweed [15]: 70; Plant response rating, Chickweed ([15]; 31 g ai/ha, 13 to 15 days): 60; Plant response rating, Chickweed ([15]; 62 g ai/ha): 60
